Assay results published in PubChem BioAssay AID330 (DTP/NCI, 2004).
Values joined by “and” are separate entries in the source; they are usually repeats but may differ in a detail not shown here. Identical values can stand only once. Inconclusive results and toxic doses are left out.

Test system: P388 leukemia ip, CD2F1 mice, survival T/C
Experiment: NCI In Vivo Anticancer Drug Screen. Data for tumor model P388 Leukemia (intraperitoneal) in CD2F1 (CDF1) mice
Details: endpoint: median survival time, higher = longer survival
How it was run: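 Mice carrying the transplanted tumor received test compound or vehicle. Survival was recorded in each group, and the value is the treated-group measurement divided by that of the vehicle-treated control group.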

[1] = dose: 100.0 mg/kg/injection, schedule: Q04DX003 (ip), vehicle: saline
[2] = dose: 100.0 mg/kg/injection, schedule: Q01DX001 (ip), vehicle: saline with Tween-80
[3] = dose: 200.0 mg/kg/injection, schedule: Q01DX001 (ip), vehicle: saline with Tween-80
[4] = dose: 60.0 mg/kg/injection, schedule: Q01DX005 (ip), vehicle: saline with Tween-80
[5] = dose: 120.0 mg/kg/injection, schedule: Q01DX005 (ip), vehicle: saline with Tween-80
[6] = dose: 240.0 mg/kg/injection, schedule: Q01DX005 (ip), vehicle: saline with Tween-80
[7] = dose: 50.0 mg/kg/injection, schedule: Q01DX005 (ip), vehicle: Klucel (hydroxypropylcellulose) (HPC)
[8] = dose: 12.5 mg/kg/injection, schedule: Q01DX005 (ip), vehicle: saline with Tween-80
[9] = dose: 25.0 mg/kg/injection, schedule: Q01DX005 (ip), vehicle: saline with Tween-80
[10] = dose: 50.0 mg/kg/injection, schedule: Q01DX005 (ip), vehicle: saline with Tween-80
[11] = dose: 50.0 mg/kg/injection, schedule: Q01DX009 (ip), vehicle: saline with Tween-80
[12] = dose: 100.0 mg/kg/injection, schedule: Q01DX009 (ip), vehicle: saline with Tween-80
[13] = dose: 200.0 mg/kg/injection, schedule: Q01DX009 (ip), vehicle: saline with Tween-80
[14] = dose: 200.0 mg/kg/injection, schedule: Q01DX005 (ip), vehicle: saline with Tween-80
[15] = dose: 100.0 mg/kg/injection, schedule: Q01DX005 (ip), vehicle: saline with Tween-80

COc1cc(Br)cc(/C=C(\C)[N+](=O)[O-])c1O
T/C (dose: 12.5 mg/kg/injection, schedule: Q04DX003 (ip), vehicle: saline): 101 % of control
T/C (dose: 25.0 mg/kg/injection, schedule: Q04DX003 (ip), vehicle: saline): 99 % of control and 108 % of control
T/C (dose: 50.0 mg/kg/injection, schedule: Q04DX003 (ip), vehicle: saline): 104 % of control and 110 % of control
T/C [1]: 104 % of control

N#Cc1cn(C2OC(CO)C(O)C2O)c2ncnc(N)c12 (stereo not given)
T/C (dose: 0.05 mg/kg/injection, schedule: Q01DX009 (ip), vehicle: other): 124 % of control
T/C (dose: 0.1 mg/kg/injection, schedule: Q01DX009 (ip), vehicle: other): 155 % of control
T/C (dose: 0.13 mg/kg/injection, schedule: Q04DX003 (ip), vehicle: other): 154 % of control
T/C (dose: 0.15 mg/kg/injection, schedule: Q04DX003 (ip), vehicle: other): 163 % of control
T/C (dose: 0.2 mg/kg/injection, schedule: Q01DX009 (ip), vehicle: other): 120 % of control
T/C (dose: 0.2 mg/kg/injection, schedule: Q04DX003 (ip), vehicle: other): 150 % of control
T/C (dose: 0.4 mg/kg/injection, schedule: Q01DX009 (ip), vehicle: other): 95 % of control
T/C (dose: 1.0 mg/kg/injection, schedule: Q04DX003 (ip), vehicle: saline with Tween-80): 165 % of control
T/C (dose: 2.0 mg/kg/injection, schedule: Q04DX003 (ip), vehicle: saline with Tween-80): 150 % of control
T/C (dose: 4.0 mg/kg/injection, schedule: Q04DX003 (ip), vehicle: saline with Tween-80): 95 % of control
T/C (dose: 29.6 micrograms/kg/injection, schedule: Q04DX003 (ip), vehicle: other): 110 % of control
T/C (dose: 44.0 micrograms/kg/injection, schedule: Q04DX003 (ip), vehicle: other): 120 % of control
T/C (dose: 66.0 micrograms/kg/injection, schedule: Q04DX003 (ip), vehicle: other): 153 % of control

COc1cccc2c1C(=O)c1c(O)c3c(c(O)c1C2=O)CC(O)(/C(C)=N/NC(=O)CCCCCC(=O)N/N=C(\C)C1(O)Cc2c(O)c4c(c(O)c2C(OC2CC(N)C(O)C(C)O2)C1)C(=O)c1c(OC)cccc1C4=O)CC3OC1CC(N)C(O)C(C)O1 (stereo not given)
T/C (dose: 0.78 mg/kg/injection, schedule: Q01DX009 (ip), vehicle: water): 158 % of control
T/C (dose: 1.56 mg/kg/injection, schedule: Q01DX009 (ip), vehicle: water): 157 % of control and 163 % of control
T/C (dose: 3.13 mg/kg/injection, schedule: Q01DX009 (ip), vehicle: water): 153 % of control and 154 % of control
T/C (dose: 6.25 mg/kg/injection, schedule: Q01DX009 (ip), vehicle: water): 200 % of control and 202 % of control
T/C (dose: 12.5 mg/kg/injection, schedule: Q01DX009 (ip), vehicle: water): 88 % of control and 93 % of control

COCc1ccc(C(N)C(=O)O)cc1 (stereo not given)
T/C [2]: 92 % of control
T/C [3]: 108 % of control

[Se]=[Hf]=[Se]
T/C [4]: 97 % of control
T/C [5]: 97 % of control
T/C [6]: 94 % of control

CC(CNC(Cc1ccccc1)c1ccccc1)NC(Cc1ccccc1)c1ccccc1 (stereo not given)
T/C (dose: 12.5 mg/kg/injection, schedule: Q01DX005 (ip), vehicle: Klucel (hydroxypropylcellulose) (HPC)): 110 % of control
T/C (dose: 25.0 mg/kg/injection, schedule: Q01DX005 (ip), vehicle: Klucel (hydroxypropylcellulose) (HPC)): 102 % of control
T/C [7]: 105 % of control and 110 % of control

COC(=O)c1cc(=O)nc(N/N=C/c2ccc3c(c2)OCO3)s1
T/C [8]: 99 % of control
T/C [9]: 94 % of control
T/C [10]: 94 % of control

O=C(/C=C/c1ccccc1)c1ccccc(=O)c1O
T/C [7]: 105 % of control
T/C (dose: 100.0 mg/kg/injection, schedule: Q01DX005 (ip), vehicle: Klucel (hydroxypropylcellulose) (HPC)): 113 % of control
T/C (dose: 200.0 mg/kg/injection, schedule: Q01DX005 (ip), vehicle: Klucel (hydroxypropylcellulose) (HPC)): 104 % of control

CC1=NNB(O)c2sccc21
T/C [11]: 90 % of control
T/C [12]: 100 % of control
T/C [13]: 91 % of control

C(=N\Nc1nnc(-c2ccccc2)c(-c2ccccc2)n1)/c1cccnc1
T/C [8]: 86 % of control
T/C [9]: 96 % of control
T/C [10]: 89 % of control
T/C [14]: 90 % of control

COC(=O)C1=NC(=N)N=C(C(=O)OC)C1(C)C(=O)c1ccc(Cl)cc1 (stereo not given)
T/C [4]: 100 % of control and 104 % of control
T/C [5]: 98 % of control
T/C [6]: 99 % of control

c1ccc(CCN2CCC3(CC2)COCc2ccccc23)cc1
T/C [2]: 96 % of control

CC(C)N(c1ccc(O)c2ccccc12)C(C)C
T/C [2]: 96 % of control
T/C [3]: 100 % of control
T/C (dose: 400.0 mg/kg/injection, schedule: Q01DX001 (ip), vehicle: saline with Tween-80): 95 % of control

O=C1OC(C(Cl)(Cl)Cl)NC1Cc1ccccc1 (stereo not given)
T/C [11]: 107 % of control
T/C [12]: 103 % of control
T/C [13]: 110 % of control

COC(=O)C1(C)CCCC2(C)C3CCC4CC3(C=C4CO)CCC12 (stereo not given)
T/C (dose: 10.0 mg/kg/injection, schedule: Q01DX005 (ip), vehicle: Klucel (hydroxypropylcellulose) (HPC)): 108 % of control
T/C (dose: 20.0 mg/kg/injection, schedule: Q01DX005 (ip), vehicle: Klucel (hydroxypropylcellulose) (HPC)): 100 % of control
T/C (dose: 40.0 mg/kg/injection, schedule: Q01DX005 (ip), vehicle: Klucel (hydroxypropylcellulose) (HPC)): 100 % of control
T/C (dose: 80.0 mg/kg/injection, schedule: Q01DX005 (ip), vehicle: Klucel (hydroxypropylcellulose) (HPC)): 93 % of control

CCCCCCCCOC(=O)c1ccccc1OP(=O)(N(C)C)N(C)C
T/C (dose: 50.0 mg/kg/injection, schedule: Q01DX005 (ip), vehicle: saline): 107 % of control
T/C (dose: 100.0 mg/kg/injection, schedule: Q01DX005 (ip), vehicle: saline): 112 % of control
T/C (dose: 200.0 mg/kg/injection, schedule: Q01DX005 (ip), vehicle: saline): 100 % of control

CCCCOCN(COCCCC)CC(C)(C)C
T/C [11]: 107 % of control
T/C [12]: 105 % of control
T/C [13]: 109 % of control

C#CCN(Cc1ccc2nc(N)[nH]c(=O)c2c1)c1ccc(C(=O)NC(CCC(=O)O)C(=O)O)cc1 (stereo not given)
T/C (dose: 12.5 mg/kg/injection, schedule: Q01DX005 (ip), vehicle: water): 103 % of control and 104 % of control and 97 % of control
T/C (dose: 25.0 mg/kg/injection, schedule: Q01DX005 (ip), vehicle: water): 103 % of control and 104 % of control (2×)
T/C (dose: 50.0 mg/kg/injection, schedule: Q01DX005 (ip), vehicle: water): 109 % of control and 120 % of control (2×)
T/C (dose: 100.0 mg/kg/injection, schedule: Q01DX005 (ip), vehicle: water): 117 % of control
T/C (dose: 150.0 mg/kg/injection, schedule: Q01DX005 (ip), vehicle: alkali diluted with water): 97 % of control
T/C (dose: 200.0 mg/kg/injection, schedule: Q01DX005 (ip), vehicle: water): 97 % of control

Oc1ccc2c3c1OC1CCCC4[C@H](C2)N(Cc2ccoc2)CC[C@@]314 (stereo not given in full)
T/C (dose: 50.0 mg/kg/injection, schedule: Q01DX009 (ip), vehicle: saline): 91 % of control
T/C (dose: 100.0 mg/kg/injection, schedule: Q01DX009 (ip), vehicle: saline): 98 % of control
T/C (dose: 200.0 mg/kg/injection, schedule: Q01DX009 (ip), vehicle: saline): 91 % of control

CCOC(=O)c1oc2ccccc2c1CN(CCO)CCO
T/C [10]: 98 % of control
T/C [15]: 100 % of control
T/C [14]: 105 % of control

O=S(=O)(Nc1nccs1)c1ccc(N=Cc2c3ccccc3nc3cc(Cl)ccc23)cc1
T/C [10]: 94 % of control
T/C [15]: 93 % of control
T/C [14]: 96 % of control

Cc1cc(N=Cc2cccs2)cc(Cl)c1O
T/C [1]: 101 % of control
T/C (dose: 200.0 mg/kg/injection, schedule: Q04DX003 (ip), vehicle: saline): 99 % of control
T/C (dose: 400.0 mg/kg/injection, schedule: Q04DX003 (ip), vehicle: saline): 98 % of control

CCCCCCC[N+]1(CC)CCCCC1
T/C (dose: 6.25 mg/kg/injection, schedule: Q01DX009 (ip), vehicle: saline): 104 % of control
T/C (dose: 12.5 mg/kg/injection, schedule: Q01DX009 (ip), vehicle: saline): 106 % of control
T/C (dose: 25.0 mg/kg/injection, schedule: Q01DX009 (ip), vehicle: saline): 115 % of control

CC(C)CCCC(C)C1CCC2C3CCC4CC(OP(=O)(O)O)CCC4(C)C3CCC12C (stereo not given)
T/C [11]: 99 % of control
T/C [12]: 96 % of control
T/C [13]: 93 % of control

CCOC(=O)c1cc(=O)n(C)c2ccc(OCC)cc12
T/C [12]: 90 % of control
T/C [13]: 95 % of control
T/C (dose: 400.0 mg/kg/injection, schedule: Q01DX009 (ip), vehicle: saline with Tween-80): 90 % of control
